Assay results from US20190040025A1, “INDOLEAMINE 2,3-DIOXYGENASE INHIBITOR, PREPARATION METHOD THEREFOR, AND APPLICATION” (Jiangsu Hansoh Pharmaceutical Group Co., Ltd., priority 2016, published 2019).

What was measured:
[1] = test system: mouse rectal cancer cell line Colon26; assay: Anti-tumor effect in Colon26 tumor-bearing mouse model; format: in vivo, mouse (Balb/c); conditions: Colon26 tumor-bearing mice
Excerpt: The present invention further used the Colon26 tumor-bearing mouse model to test the anti-tumor effect of the example compounds. The Colon26 tumor-bearing mouse model was the mouse rectal cancer cell line Colon26 purchased from Guangzhou Ginio Biological Technology Co., Ltd., and the culture medium used was RPMI1640 containing 10% fetal bovine serum. The mouse strain used for tumor-bearing was Balb/c purchased from Sino-British SIPPR/BK Lab Animal Co., Ltd. At the time of implanting, the Colon26 cells in logarithmic growth phase were collected and mixed to 10 million cells/ml. Each mouse was implanted subcutaneously with 100 μl of one million cells. When the tumor grew to about 100 cubic millimeters, animals were randomly divided into groups with 8 animals per group. Drug administration was started (D0).
Mode of administration: intragastric administration, twice a day.
(§1) Formulation prescription: 3% dimethylacetamide and 20% hydroxypropyl-β-cyclodextrin. • Administration period and tumor measurement: The administration period was 13 days. The tumor volume was measured, the mice were weighed, and the data were recorded, 3 times per week. The calculation formula of tumor volume (V) is: V=½a×b2 where a and b represent length and width, respectively. The calculation formula of T/C is: T/C (%)=100×ΔT/ΔC. Tumor inhibition rate (%)=1−T/C (%). • Experimental results: The antitumor effect of the compound of Example 15 in Colon26 tumor-bearing mouse model is shown in the following table.
Under the same experimental conditions, the dosage was adjusted. The anti-tumor effect of Example 15 and its optical isomers 18-(1) and 18-(2) in Colon26 tumor-bearing mouse model is shown in the following table: […]

[2] = target: T1, Human indoleamine 2,3-dioxygenase (IDO) (Homo sapiens, UniProt P14902); assay: Enzymatic test for IDO activity inhibition; format: biochemical; conditions: 40 nM IDO enzyme, 0.2 mM L-tryptophan, 60 minutes at 30° C.
T1 construct: purchased BPS Bioscience Inc
Description: Human indoleamine 2,3-dioxygenase (IDO) was purchased from BPS Bioscience Inc. The enzymatic reaction of idoleamine 2,3-dioxygenase (IDO) was performed in a 96-well plate with a reaction volume of 20 μL. The reaction conditions were: 40 nM IDO enzyme, 0.2 mM L-tryptophan, 50 mM KPB (pH 6.5) buffer, 20 mM sodium L-L-ascorbate, 10 μM methylene blue, 0.2 mg/mL catalase, different concentrations of compounds containing <1% dimethyl sulfoxide. After reacting for 60 minutes at 30° C., 5 μL of 30% (w/v) trichloroacetic acid (in 50 mM KPB buffer) weres added to each well. The plate was incubated for 30 minutes at 50° C. to hydrolyze N-formyl-kynurenine to kynurenine. 25 μL of 2% (w/v) p-(dimethylamino)benzaldehyde (p-DMBA)/glacial acetic acid solution were added to each well. The absorbance at 490 nm was read on a BioTek Synergy H1 microplate reader […].
The stock solution of the test compound was prepared to 10 mM with dimethyl sulfoxide, diluted with dimethyl sulfoxide to the highest concentration of the test during the experiment, then diluted in 1:3 gradient, and generally diluted to 8 to 10 concentration points. Duplicate wells were set for each concentration point, and one reference compound was included in each experiment. The original data of the absorbance at 490 nm read on a microplate reader were analyzed. The inhibition of IDO enzyme activity was calculated at different concentrations of the test compound. The half-inhibitory concentration IC50 value of the compound was obtained by non-linear fitting analysis of inhibition percentage data by GraphPad Prism software.

[3] = Pharmacokinetic (PK) analysis of rat plasma; format: in vivo; conditions: Sprague-Dawley, po, 20 mg/kg, SD rats, single gavage, 20 mg/10 mL/kg
Description: The pharmacokinetics test of the test compound was performed with Sprague Dawley (SD) rats (Shanghai Slac Laboratory Animal Co., LTD).
Mode of administration: Single gavage.
U Dosage: 20 mg/10 mL/kg.
Formulation prescription: 3% dimethylacetamide and 20% hydroxypropyl-3-cyclodextrin.
Sampling points: before administration and 15 minutes, 0.5, 1, 2, 4, 6, 8 and 24 hours after administration.
Plasma sampling and sample processing: • 1) 0.2 ml of intravenous blood was collected and placed in an EDTA-2K tube. The blood was centrifuged at 4° C. for 5 minutes at 6,000 rpm to separate the plasma, which was stored at −80° C. • 2) 160 μL of acetonitrile were added to 40 μL of plasma sample, standard, and internal reference. The mixture was shaken vertically for 3 minutes, and centrifuged at 4000 rpm for 10 minutes. 100 μL of the supernatant were taken, and then added with 100 μL of deionized water and mixed well. 100 μL of the resulting solution was taken for LC/MS/MS analysis. The instrument for plasma LC/MS/MS analysis was AB Sciex API 4000.
Liquid Chromatography Analysis: • Liquid chromatography conditions: Shimadzu LC-20AD pump • Chromatographic column: phenomenex Gemiu 5 μm C18 50×4.6 mm • Mobile phase: solution A was 0.1% formic acid solution, and solution B was acetonitrile • Flow rate: 0.8 mL/min • Elution time: 0-3.01 minutes and the eluent was as follows:
• Mass spectrometry analysis: setup conditions of mass spectrometer: positive ion electrospray ionization (ESI) mode. • Experimental results: the main parameters of pharmacokinetics were calculated by WinNonlin 6.1 and the experimental results are shown in the following table: […]

[4] = target: T2, indoleamine 2,3-dioxygenase (IDO) in HeLa cells (Homo sapiens, UniProt P14902); assay: Cell model test for IDO activity inhibition (interferon γ induced HeLa cells); format: cell-based; conditions: interferon γ 50 ng/mL, 24 hours, read-out: Cytological Test IC50
T2 construct: Interferon γ induced the expression of IDO in HeLa cells; host or cells: HeLa cells induced with interferon γ
Description: Interferon γ induced the expression of IDO in HeLa cells. This model was used to test the inhibitory activity of compounds on indoleamine 2,3-dioxygenase (IDO). The culture medium of HeLa cells (ATCC) was phenol red-free RPMI-1640 containing 100 μM L-tryptophan. The stock solution of the test compound was prepared to 10 mM with dimethyl sulfoxide, and diluted with dimethyl sulfoxide to the highest concentration of the test during the experiment, then diluted in three-fold gradient, and generally diluted to 8 to 10 concentration points. Duplicate wells were set for each concentration point. The final concentration of DMSO was 0.5%, and internal reference compound was included in each experiment.
The procedure of the experiment was as follows: 20,000 HeLa cells (ATCC) per well were added on a 96-well culture plate and incubated overnight. After 24 hours, interferon γ (final concentration of 50 ng/mL) and different concentrations of the test compound and the internal reference compound were added to the incubated cells. After 24 hours, 140 μL of the supernatant/well was transferred to a new 96-well plate, and 10 μL of 6.1 N trichloroacetic acid was added to each well. The plate was incubated for 30 minutes at 50° C. to hydrolyze N-formyl-kynurenine to kynurenine. The reaction mixture was centrifuged at 2500 rpm for 10 minutes to remove the precipitate, and the supernatant (100 μL) was transferred to another new 96-well plate. 100 μL of 2% (W/V) p-(dimethylamino)benzaldehyde (p-DMBA)/glacial acetic acid solution was added to each well. The absorbance at 490 nm was read on a BioTek Synergy H1 microplate reader […].
The original data of the absorbance at 490 nm read on a microplate reader were analyzed. The inhibition of IDO enzyme activity was calculated at different concentrations of the test compound. The half-inhibitory concentration IC50 value of the compound was obtained by non-linear fitting analysis of inhibition percentage data by GraphPad Prism software.

[5] = test system: mouse pancreatic cancer cell line PAN02; assay: Anti-tumor effect in PAN02 tumor-bearing mouse model; format: in vivo, mouse (C57/BL6); conditions: PAN02 tumor-bearing mice, 50 mg/kg intragastric twice a day
Excerpt: The invention used the PAN02 tumor-bearing mouse model to test the anti-tumor effect of the example compounds. The PAN02 tumor-bearing mouse model was the mouse pancreatic cancer cell line PAN02 purchased from Guangzhou Ginnio Biological Technology Co., Ltd., and the culture medium used was DMEM containing 10% fetal bovine serum. The mouse strain used for tumor-bearing was C57/BL6 purchased from Shanghai Slac Laboratory Animal Co., Ltd. At the time of implanting, the PAN02 cells in the logarithmic growth phase were collected, and mixed with the BDMatrigel matrix gel that reduced the growth factor to 50 million cells/ml. Each mouse was implanted subcutaneously with 100 μL of 5 million cells. When the tumor grew to about 100 cubic millimeters, animals were randomly divided into groups with 8 animals per group. Drug administration was started (D0).
Mode of administration: intragastrical administration, twice a day.
as §1, with “3% two methyl acetamide” for “3% dimethylacetamide”, “times a” for “times per”, “is: V=½a×b2,” for “is: V=½a×b2”, “and width” for “and width,”, “results: the anti-tumor” for “results: The antitumor”, “in PAN02” for “in Colon26”

[6] = 25 mg/kg intragastric twice a day, D12

T1 sequence (P14902 whole entry): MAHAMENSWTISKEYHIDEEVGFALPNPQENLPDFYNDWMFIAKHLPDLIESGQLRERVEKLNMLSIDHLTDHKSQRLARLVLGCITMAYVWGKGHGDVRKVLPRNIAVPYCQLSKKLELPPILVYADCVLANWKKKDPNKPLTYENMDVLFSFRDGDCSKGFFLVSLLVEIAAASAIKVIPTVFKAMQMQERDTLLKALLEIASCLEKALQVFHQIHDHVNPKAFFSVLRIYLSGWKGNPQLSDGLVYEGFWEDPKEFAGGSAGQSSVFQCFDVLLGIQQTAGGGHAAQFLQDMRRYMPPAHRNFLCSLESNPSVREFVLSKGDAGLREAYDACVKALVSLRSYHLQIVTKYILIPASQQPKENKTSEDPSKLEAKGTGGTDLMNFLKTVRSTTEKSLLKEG
T2 sequence (P14902 whole entry): as above

SMILES	Tumor inhibition rate (%) D12 ([1]; 10 mg/kg, D12)	IC50 [2]	AUC(0-inf) [3]	Cmax [3]	Tmax [3]	half-life [3]	IC50 [4]	Average tumor volume (mm^3 ± SEM) D0 ([5]; D0 (start of administration))	Average tumor volume (mm^3 ± SEM) D12 ([5]; D12)	T/C (%) D12 ([5]; D12)	Tumor inhibition rate (%) D12 ([5]; D12, 50 mg/kg)	Average tumor volume (mm^3 ± SEM) D0 ([1]; 25 mg/kg intragastric twice a day, D0 (start of administration))	Average tumor volume (mm^3 ± SEM) D12 [1, 6]	T/C (%) D12 [1, 6]	Tumor inhibition rate (%) D12 ([1]; 25 mg/kg intragastric twice a day, D12, 25 mg/kg)
C[S@](=O)(CCNc1nonc1/C(=N/O)Nc1ccc(F)c(Br)c1)=NS(=O)(=O)C1CC1 [Example 18-②, (S,Z)—N-(3-bromo-4-fluorophenyl)-4-((2-(N-(cyclopropylsulfonyl)-S-methylsulfonimidoyl)ethyl)amino)-N′-hydroxy-1,2,5-oxadiazole-3-carboximidamide]	68.49%	24 nM	4610 ng·h/mL	2020 ng/mL	0.5 h	1.4 h	9 nM								
C[S@@](=O)(CCNc1nonc1/C(=N/O)Nc1ccc(F)c(Br)c1)=NS(=O)(=O)C1CC1 [Example 18-①, (R,Z)—N-(3-bromo-4-fluorophenyl)-4-((2-(N-(cyclopropylsulfonyl)-S-methylsulfonimidoyl)ethyl)amino)-N′-hydroxy-1,2,5-oxadiazole-3-carboximidamide]	72.54%	19 nM	7320 ng·h/mL	2770 ng/mL	0.5 h	2.03 h	11 nM								
CS(=O)(=O)N=S(C)(=O)CCNc1nonc1/C(=N/O)Nc1ccc(F)c(Br)c1 (centres unmarked) [Example 14, (Z)—N-(3-bromo-4-fluorophenyl)-N′-hydroxy-4-((2-(S-methyl-N-(methylsulfonyl)sulfonimidoyl)ethyl)amino)-1,2,5-oxadiazole-3-carboximidamide]		38 nM	7540 ng·h/mL	1050 ng/mL	0.5 h	5.5 h	12 nM								
NC(=O)C(=O)NCCNc1nonc1/C(=N/O)Nc1ccc(F)c(Br)c1 [Example 1, (Z)—N^1-(2-((4-(N-(3-bromo-4-fluorophenyl)-N′-hydroxycarbamimidoyl)-1,2,5-oxadiazol-3-yl)amino)ethyl)oxalamide]		70 nM	8620 ng·h/mL	3680 ng/mL	0.5 h	2.7 h	15 nM								
NS(=O)(=O)NCCNc1nonc1C(=NO)Nc1ccc(F)c(Br)c1 [INCB-24360, Epacadostat, reference compound]			2450 ng·h/mL	306 ng/mL	1 h	3.5 h		102.8 ± 3.4 mm^3	242.1 ± 23.4 mm^3	60.3%	39.7%	95.3 ± 2.4 mm^3	565.2 ± 10.9 mm^3	21.6%	78.4%
